Data published in patent publication US20170190671A1, “BIS(ARYL)CATECHOL DERIVATIVES AS HERBICIDES” (E I DU PONT DE NEMOURS AND COMPANY, priority 2014, published 2017).

Columns and labels:
Format in all cases: in vivo
[1] = test system: blackgrass (Alopecurus myosuroides); assay: Test C preemergence; settings: Alopecurus myosuroides, pre-emergence, 336 h, scale 0 to 100, read-out: Plant response rating, Blackgrass
Procedure, shortened: (§1)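 Visual ratings (0 none to 100 complete control) were made 13 to 15 days after treatment, relative to controls. Test chemicals, formulated in a non-phytotoxic solvent mixture with surfactant, were applied in the greenhouse preemergence to seeded loam-sand soil or postemergence to plants 2 to 18 cm tall.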

[2] = test system: oilseed rape (Brassica napus); assay: Test C preemergence; settings: Brassica napus, pre-emergence, scale 0 to 100, read-out: Plant response rating, Oilseed Rape
Procedure, shortened: as §1

[3] = test system: yellow nutsedge (Cyperus esculentus); assay: Test C preemergence; settings: Cyperus, pre-emergence, 336 h, scale 0 to 100, read-out: Plant response rating, Nutsedge, Yellow
Procedure, shortened: as §1

[4] = test system: Italian ryegrass (Lolium multiflorum); assay: Test C postemergence; settings: Lolium multiflorum, post-emergence, 336 h, Postemergence, scale 0 to 100, read-out: Plant response rating, Ryegrass, Italian
Procedure, shortened: as §1

[5] = test system: barnyardgrass (Echinochloa crus-galli); assay: Test C postemergence; settings: Echinochloa crus-galli, post-emergence, Postemergence, scale 0 to 100, read-out: Plant response rating, Barnyardgrass
Procedure, shortened: as §1

[6] = test system: blackgrass (Alopecurus myosuroides); assay: Test C postemergence; settings: Alopecurus myosuroides, post-emergence, 336 h, Postemergence, scale 0 to 100, read-out: Plant response rating, Blackgrass
Procedure, shortened: as §1

[7] = test system: chickweed (common chickweed, Stellaria media); assay: Test C postemergence; settings: Stellaria media, post-emergence, Postemergence, scale 0 to 100, read-out: Plant response rating, Chickweed
Procedure, shortened: as §1

[8] = test system: corn (Zea mays); assay: Test C postemergence; settings: Zea mays, post-emergence, 336 h, Postemergence, scale 0 to 100
Procedure, shortened: as §1

[9] = test system: galium (catchweed bedstraw, Galium aparine); assay: Test C postemergence; settings: Galium, post-emergence, 336 h, Postemergence, scale 0 to 100, read-out: Plant response rating, Galium
Procedure, shortened: as §1

[10] = test system: giant foxtail (Setaria faberii); assay: Test C postemergence; settings: Setaria faberi, post-emergence, 336 h, Postemergence, scale 0 to 100, read-out: Plant response rating, Foxtail, Giant
Procedure, shortened: as §1

[11] = test system: johnsongrass (Sorghum halepense); assay: Test C postemergence; settings: Sorghum halepense, post-emergence, 336 h, Postemergence, scale 0 to 100, read-out: Plant response rating, Johnsongrass
Procedure, shortened: as §1

[12] = test system: kochia (Kochia scoparia); assay: Test C postemergence; settings: Bassia scoparia, post-emergence, Postemergence, scale 0 to 100, read-out: Plant response rating, Kochia
Procedure, shortened: as §1

[13] = test system: lambsquarters (Chenopodium album); assay: Test C postemergence; settings: Chenopodium album, post-emergence, 336 h, Postemergence, scale 0 to 100, read-out: Plant response rating, Lambsquarters
Procedure, shortened: as §1

[14] = test system: large (Lg) crabgrass (Digitaria sanguinalis); assay: Test C postemergence; settings: Digitaria sanguinalis, post-emergence, 336 h, Postemergence, scale 0 to 100, read-out: Plant response rating, Crabgrass, Large
Procedure, shortened: as §1

[15] = test system: morningglory (Ipomoea coccinea); assay: Test C postemergence; settings: Ipomoea, post-emergence, 336 h, Postemergence, scale 0 to 100, read-out: Plant response rating, Morningglory
Procedure, shortened: as §1

[16] = test system: oilseed rape (Brassica napus); assay: Test C postemergence; settings: Brassica napus, post-emergence, Postemergence, scale 0 to 100, read-out: Plant response rating, Oilseed Rape
Procedure, shortened: as §1

[17] = test system: ragweed (common ragweed, Ambrosia elatior); assay: Test C postemergence; settings: Ambrosia artemisiifolia, post-emergence, 336 h, Postemergence, scale 0 to 100, read-out: Plant response rating, Ragweed
Procedure, shortened: as §1

[18] = test system: soybean (Glycine max); assay: Test C postemergence; settings: Glycine max, post-emergence, Postemergence, scale 0 to 100, read-out: Plant response rating, Soybean
Procedure, shortened: as §1

[19] = test system: velvetleaf (Abutilon theophrasti); assay: Test C postemergence; settings: Abutilon theophrasti, post-emergence, Postemergence, scale 0 to 100, read-out: Plant response rating, Velvetleaf
Procedure, shortened: as §1

[20] = test system: wild oat (Avena fatua); assay: Test C postemergence; settings: Avena fatua, post-emergence, Postemergence, scale 0 to 100, read-out: Plant response rating, Oat, Wild
Procedure, shortened: as §1

[21] = test system: winter wheat (Triticum aestivum); assay: Test C postemergence; settings: Triticum aestivum, post-emergence, 336 h, Postemergence, scale 0 to 100, read-out: Plant response rating, Wheat
Procedure, shortened: as §1

[22] = test system: yellow nutsedge (Cyperus esculentus); assay: Test C postemergence; settings: Cyperus, post-emergence, 336 h, Postemergence, scale 0 to 100, read-out: Plant response rating, Nutsedge, Yellow
Procedure, shortened: as §1

N#Cc1cccc(Oc2ncc(Cl)cn2)c1Oc1cnc(Cl)cn1 [Compound 32, 2-[(5-chloro-2-pyrazinyl)oxy]-3-[(5-chloro-2-pyrimidinyl)oxy]benzonitrile]
70%: pest or weed control at 31 g/ha ([1]; 31 g ai/ha, preemergence) | pest or weed control at 16 g/ha ([7]; 16 g ai/ha)
40%: pest or weed control at 125 g/ha ([11]; 125 g ai/ha)
60%: pest or weed control at 62 g/ha ([3]; 62 g ai/ha, preemergence) | pest or weed control at 62 g/ha ([19]; 62 g ai/ha)
90%: pest or weed control at 62 g/ha ([1]; 62 g ai/ha, preemergence) | pest or weed control at 16 g/ha ([12]; 16 g ai/ha) | pest or weed control at 31 g/ha ([12]; 31 g ai/ha) | pest or weed control at 62 g/ha ([12]; 62 g ai/ha) | pest or weed control at 125 g/ha ([12]; 125 g ai/ha) | pest or weed control at 31 g/ha ([13]; 31 g ai/ha) | pest or weed control at 125 g/ha ([13]; 125 g ai/ha) | pest or weed control at 31 g/ha ([15]; 31 g ai/ha)
55%: pest or weed control at 31 g/ha ([17]; 31 g ai/ha) | pest or weed control at 31 g/ha ([19]; 31 g ai/ha)
10%: plant injury at 16 g/ha ([2]; Preemergence, 16 g ai/ha) | pest or weed control at 62 g/ha ([4]; 62 g ai/ha) | pest or weed control at 16 g/ha ([5]; 16 g ai/ha) | pest or weed control at 125 g/ha ([6]; 125 g ai/ha) | pest or weed control at 16 g/ha ([11]; 16 g ai/ha) | pest or weed control at 31 g/ha ([11]; 31 g ai/ha) | pest or weed control at 62 g/ha ([11]; 62 g ai/ha) | pest or weed control at 31 g/ha ([14]; 31 g ai/ha)
85%: pest or weed control at 125 g/ha ([7]; 125 g ai/ha) | pest or weed control at 62 g/ha ([13]; 62 g ai/ha) | plant injury at 62 g/ha ([16]; 62 g ai/ha) | plant injury at 125 g/ha ([16]; 125 g ai/ha) | plant injury at 62 g/ha ([18]; 62 g ai/ha) | plant injury at 125 g/ha ([18]; 125 g ai/ha)
35%: pest or weed control at 31 g/ha ([3]; 31 g ai/ha, preemergence)
25%: Corn plant response rating (crop injury, 0 = no effect, 100 = complete kill) at 62 g/ha ([8]; 62 g ai/ha) | Corn plant response rating (crop injury, 0 = no effect, 100 = complete kill) at 125 g/ha ([8]; 125 g ai/ha)
30%: pest or weed control at 125 g/ha ([4]; 125 g ai/ha) | pest or weed control at 125 g/ha ([5]; 125 g ai/ha) | pest or weed control at 125 g/ha ([14]; 125 g ai/ha) | pest or weed control at 31 g/ha ([20]; 31 g ai/ha) | pest or weed control at 62 g/ha ([20]; 62 g ai/ha) | pest or weed control at 125 g/ha ([20]; 125 g ai/ha)
65%: plant injury at 31 g/ha ([18]; 31 g ai/ha)
75%: pest or weed control at 125 g/ha ([3]; 125 g ai/ha, preemergence) | pest or weed control at 125 g/ha ([19]; 125 g ai/ha)
20%: pest or weed control at 31 g/ha ([5]; 31 g ai/ha) | pest or weed control at 62 g/ha ([5]; 62 g ai/ha) | Corn plant response rating (crop injury, 0 = no effect, 100 = complete kill) at 16 g/ha ([8]; 16 g ai/ha) | Corn plant response rating (crop injury, 0 = no effect, 100 = complete kill) at 31 g/ha ([8]; 31 g ai/ha) | pest or weed control at 16 g/ha ([10]; 16 g ai/ha) | pest or weed control at 31 g/ha ([10]; 31 g ai/ha) | pest or weed control at 125 g/ha ([10]; 125 g ai/ha) | pest or weed control at 62 g/ha ([14]; 62 g ai/ha) | pest or weed control at 31 g/ha ([22]; 31 g ai/ha) | pest or weed control at 62 g/ha ([22]; 62 g ai/ha) | pest or weed control at 125 g/ha ([22]; 125 g ai/ha)
0%: pest or weed control at 16 g/ha ([1]; Preemergence, 16 g ai/ha) | plant injury at 31 g/ha ([21]; 31 g ai/ha) | plant injury at 62 g/ha ([21]; 62 g ai/ha) | plant injury at 125 g/ha ([21]; 125 g ai/ha)
5%: pest or weed control at 16 g/ha ([3]; Preemergence, 16 g ai/ha) | pest or weed control at 31 g/ha ([4]; 31 g ai/ha) | pest or weed control at 16 g/ha ([6]; 16 g ai/ha) | pest or weed control at 31 g/ha ([6]; 31 g ai/ha) | pest or weed control at 62 g/ha ([6]; 62 g ai/ha) | pest or weed control at 16 g/ha ([14]; 16 g ai/ha)
95%: pest or weed control at 125 g/ha ([1]; 125 g ai/ha, preemergence) | plant injury at 31 g/ha ([2]; 31 g ai/ha, preemergence) | plant injury at 62 g/ha ([2]; 62 g ai/ha, preemergence) | plant injury at 125 g/ha ([2]; 125 g ai/ha, preemergence) | pest or weed control at 62 g/ha ([9]; 62 g ai/ha) | pest or weed control at 125 g/ha ([9]; 125 g ai/ha) | pest or weed control at 62 g/ha ([15]; 62 g ai/ha) | pest or weed control at 125 g/ha ([15]; 125 g ai/ha)
15%: pest or weed control at 62 g/ha ([10]; 62 g ai/ha)
80%: pest or weed control at 31 g/ha ([7]; 31 g ai/ha) | pest or weed control at 62 g/ha ([7]; 62 g ai/ha) | pest or weed control at 16 g/ha ([9]; 16 g ai/ha) | pest or weed control at 31 g/ha ([9]; 31 g ai/ha) | pest or weed control at 16 g/ha ([13]; 16 g ai/ha) | plant injury at 31 g/ha ([16]; 31 g ai/ha) | pest or weed control at 62 g/ha ([17]; 62 g ai/ha) | pest or weed control at 125 g/ha ([17]; 125 g ai/ha)
